According to patent US20080234262A1 (Wyeth, priority 2007, published 2008):

Tests used:
prostate line LNCap = assay: In vitro cell culture growth assay (MTS), LNCap; assay type: cell-based, human; conditions: LNCap cells, three days after drug treatment
PI3K = PI3K (Homo sapiens, UniProt P42336); assay: Fluorescence polarization assay for PI3K; assay type: biochemical; conditions: PI3Kα; read-out: PI3Kα IC50;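 also: PI3K kinase reaction on PIP2 with ATP, 30-60 min, product sensed by GST-GRP with red probe in fluorescence polarization (mP), controls without enzyme and at zero time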
Sequence of PI3K (P42336 whole entry): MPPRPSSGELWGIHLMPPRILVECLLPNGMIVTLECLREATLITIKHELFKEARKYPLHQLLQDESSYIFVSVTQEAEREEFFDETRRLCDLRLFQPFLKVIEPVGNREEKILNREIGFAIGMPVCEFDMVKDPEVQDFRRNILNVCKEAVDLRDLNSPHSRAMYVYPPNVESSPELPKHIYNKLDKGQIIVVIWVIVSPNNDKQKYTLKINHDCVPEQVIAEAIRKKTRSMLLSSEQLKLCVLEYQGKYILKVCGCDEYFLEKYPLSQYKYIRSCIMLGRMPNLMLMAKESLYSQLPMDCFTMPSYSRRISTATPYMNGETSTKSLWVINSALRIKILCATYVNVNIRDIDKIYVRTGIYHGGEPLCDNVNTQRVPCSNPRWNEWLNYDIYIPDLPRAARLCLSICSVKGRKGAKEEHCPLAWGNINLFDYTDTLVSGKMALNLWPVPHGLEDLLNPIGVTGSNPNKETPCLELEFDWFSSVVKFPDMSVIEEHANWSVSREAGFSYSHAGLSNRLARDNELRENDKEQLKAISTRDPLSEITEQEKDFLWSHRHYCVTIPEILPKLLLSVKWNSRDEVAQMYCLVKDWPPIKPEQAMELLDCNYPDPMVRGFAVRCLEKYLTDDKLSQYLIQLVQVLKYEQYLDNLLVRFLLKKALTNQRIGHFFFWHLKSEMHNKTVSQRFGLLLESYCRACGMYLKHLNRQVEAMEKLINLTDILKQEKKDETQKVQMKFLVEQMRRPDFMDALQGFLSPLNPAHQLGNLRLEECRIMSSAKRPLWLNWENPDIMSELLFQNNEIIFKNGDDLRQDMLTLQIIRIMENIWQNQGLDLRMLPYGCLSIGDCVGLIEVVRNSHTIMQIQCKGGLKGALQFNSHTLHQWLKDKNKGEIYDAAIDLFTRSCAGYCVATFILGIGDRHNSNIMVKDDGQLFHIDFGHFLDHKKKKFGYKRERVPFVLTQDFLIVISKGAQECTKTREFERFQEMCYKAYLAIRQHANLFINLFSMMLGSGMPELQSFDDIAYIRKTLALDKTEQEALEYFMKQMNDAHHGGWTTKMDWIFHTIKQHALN
Sequence of PI3K (P27986 whole entry partner): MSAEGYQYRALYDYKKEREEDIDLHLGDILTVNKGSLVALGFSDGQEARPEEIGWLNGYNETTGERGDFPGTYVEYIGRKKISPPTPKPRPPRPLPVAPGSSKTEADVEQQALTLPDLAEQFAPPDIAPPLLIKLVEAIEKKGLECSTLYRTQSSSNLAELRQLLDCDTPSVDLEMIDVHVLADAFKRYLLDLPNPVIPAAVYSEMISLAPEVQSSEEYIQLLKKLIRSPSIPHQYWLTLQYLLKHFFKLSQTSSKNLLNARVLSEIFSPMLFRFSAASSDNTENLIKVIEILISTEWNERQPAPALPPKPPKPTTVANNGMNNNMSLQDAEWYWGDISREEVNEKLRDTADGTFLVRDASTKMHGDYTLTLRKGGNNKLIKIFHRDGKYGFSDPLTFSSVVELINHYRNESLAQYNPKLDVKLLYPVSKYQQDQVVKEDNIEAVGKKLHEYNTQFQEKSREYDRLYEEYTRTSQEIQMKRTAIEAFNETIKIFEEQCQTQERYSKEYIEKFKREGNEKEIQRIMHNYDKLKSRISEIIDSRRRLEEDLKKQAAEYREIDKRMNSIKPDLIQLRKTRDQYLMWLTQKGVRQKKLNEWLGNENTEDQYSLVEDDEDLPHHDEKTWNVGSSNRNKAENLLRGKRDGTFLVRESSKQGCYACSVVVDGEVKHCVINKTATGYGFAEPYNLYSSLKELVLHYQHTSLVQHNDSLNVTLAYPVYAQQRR

breast line MDA468 = assay: In vitro cell culture growth assay (MTS), MDA468; assay type: cell-based, human; conditions: Homo sapiens, 72 h, MDA468 cells, three days after drug treatment
Summary of the method: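 MDA468 or LNCap cells received inhibitors one day after plating and were grown for three days. Viable cell density read by MTS conversion, absorbance 490 nm, expressed as percent of control growth versus vehicle-treated cells on the same plate.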

Row | Structure (SMILES) | IC50 (prostate line LNCap; Homo sapiens, LNCaP, 72 h) [nM] | IC50 (PI3K) [nM] | IC50 (breast line MDA468) [nM] | IC50 (prostate line LNCap) [nM]
1 | O=C(NCCO)Nc1ccc(-c2nc(N3CCOCC3)c3cnn(C4CCN(C(=O)c5ccccc5)CC4)c3n2)cc1 [Example 385, 1-{4-[1-(1-benzoylpiperidin-4-yl)-4-morpholin-4-yl-1H-pyrazolo[3,4-d]pyrimidin-6-yl]phenyl}-3-(2-hydroxyethyl)urea] | 800 | 229 | 700 | 
2 | c1ccc(-n2ncc3c(N4CCOCC4)nc(-c4cc5ccccc5s4)nc32)cc1 [Compound 113] | 22000 | 2170 | 23000 | 
3 | CNC(=O)Nc1ccc(-c2nc(N3CCOCC3)c3cnn(C4CCN(C(=O)OCC(C)C)CC4)c3n2)cc1 [Compound 754, isobutyl 4-(6-{4-[(methylcarbamoyl)amino]phenyl}-4-morpholin-4-yl-1H-pyrazolo[3,4-d]pyrimidin-1-yl)piperidine-1-carboxylate] | 130 | 72 | 270 | 
4 | O=C(NCCF)Nc1ccc(-c2nc(N3CCOCC3)c3cnn(C4CCN(C(=O)c5ccccc5)CC4)c3n2)cc1 [Compound 625, 1-{4-[1-(1-benzoylpiperidin-4-yl)-4-morpholin-4-yl-1H-pyrazolo[3,4-d]pyrimidin-6-yl]phenyl}-3-(2-fluoroethyl)urea] |  | 454 | 27 | < 27
5 | O=C(Nc1ccc(-c2nc(N3CCOCC3)c3cnn(C4CCN(Cc5ccccc5)CC4)c3n2)cc1)NN1CCCC1 [Compound 291, 1-{4-[1-(1-benzylpiperidin-4-yl)-4-morpholin-4-yl-1H-pyrazolo[3,4-d]pyrimidin-6-yl]phenyl}-3-pyrrolidin-1-ylurea] | 3000 | 4230 | 10000 | 
6 | Nc1ccc(-c2nc(N3CCOCC3)c3cnn(C4CCN(Cc5cccnc5)CC4)c3n2)cn1 [Example 210, 5-{4-morpholin-4-yl-1-[1-(pyridin-3-ylmethyl)piperidin-4-yl]-1H-pyrazolo[3,4-d]pyrimidin-6-yl}pyridin-2-amine] | 200 | 108 | 1100 | 
7 | COC(=O)Nc1ccc(-c2nc(N3CCOCC3)c3cnn(C4CCN(CCCCO)CC4)c3n2)cc1 [Compound 744, methyl (4-{1-[1-(4-hydroxybutyl)piperidin-4-yl]-4-morpholin-4-yl-1H-pyrazolo[3,4-d]pyrimidin-6-yl}phenyl)carbamate] | 3500 | 1050 | 10200 | 
8 | CCOC(=O)N1CCC(n2ncc3c(N4CCOCC4)nc(-c4ccc(NC(=O)NC5CC5)cc4)nc32)CC1 [Compound 821, ethyl 4-(6-{4-[(cyclopropylcarbamoyl)amino]phenyl}-4-morpholin-4-yl-1H-pyrazolo[3,4-d]pyrimidin-1-yl)piperidine-1-carboxylate] | < 27 | 1120 | 140 | 
9 | CNC(=O)Nc1ccc(-c2nc(N3CCOCC3)c3cnn(C4CCN(Cc5cccc(OC)c5)CC4)c3n2)cc1 [Example 400, 1-(4-{1-[1-(3-methoxybenzyl)piperidin-4-yl]-4-morpholin-4-yl-1H-pyrazolo[3,4-d]pyrimidin-6-yl}phenyl)-3-methylurea] | 70 | 43 | 500 | 
10 | O=C(Nc1ccc(-c2nc(N3CCOCC3)c3cnn(C4CCN(C(=O)c5cccnc5)CC4)c3n2)cc1)Nc1cccnc1 [Compound 547, 1-(4-{4-morpholin-4-yl-1-[1-(pyridin-3-ylcarbonyl)piperidin-4-yl]-1H-pyrazolo[3,4-d]pyrimidin-6-yl}phenyl)-3-pyridin-3-ylurea] | 200 | 32 | 27 | 
11 | CNC(=O)Nc1ccc(-c2nc(N3CCOCC3)c3cnn(C4CCN(Cc5ccc(OC)c(O)c5)CC4)c3n2)cc1 [Example 398, 1-(4-{1-[1-(3-hydroxy-4-methoxybenzyl)piperidin-4-yl]-4-morpholin-4-yl-1H-pyrazolo[3,4-d]pyrimidin-6-yl}phenyl)-3-methylurea] | 150 | 57 | 600 | 
